Experimental data reported in PMC6831664, “Synthesis of new isoquinoline-base-oxadiazole derivatives as potent inhibitors of thymidine phosphorylase and molecular docking study” (Scientific Reports, 2019).

What follows are molecules tested against thymidine phosphorylase (Escherichia coli, UniProt P07650) (assay: In vitro thymidine phosphorylase inhibition (spectrophotometric, absorbance at 290 nm)). Conditions: not given.
Format: biochemical, human and E. coli
Procedure: The desired activity of thymidine phosphorylase under this protocol was carried out with slight modification in the method described by Krenitsky and Bush in 1979[46],[47]. Here, TP activity was determined through spectrophotometrically by absorbance at 290 nm. Although the whole reaction mixture of 200 µL have the limit of 145 µL of potassium phosphate buffer (pH 7.4, 50 mM), 30 µL of enzyme (human and E. coli) by concentration 0.05 and 0.002 U, distinectly, followed by incubation through 5 µL of test materials (0.075, 0.15, 0.3 and 0.5 mM) at 25 °C for 10 min in triplet reader. Subsequently, pre-read at 290 nm was taken to conclude the absorbance of concern substrate particles. The crave substrate “thyimidin” (20 µL, 1.5 mM), was then dissolved in the buffer (potassium phosphate), followed by instant addition to plate with constant read after every 10, 20 and 30 min in micro plate reader (spectra max, molecular devices, CA, USA). All the assay were implemented in triplicate under positive control of 7-Deazxanthine.

thymidine phosphorylase, sequence (P07650 whole entry): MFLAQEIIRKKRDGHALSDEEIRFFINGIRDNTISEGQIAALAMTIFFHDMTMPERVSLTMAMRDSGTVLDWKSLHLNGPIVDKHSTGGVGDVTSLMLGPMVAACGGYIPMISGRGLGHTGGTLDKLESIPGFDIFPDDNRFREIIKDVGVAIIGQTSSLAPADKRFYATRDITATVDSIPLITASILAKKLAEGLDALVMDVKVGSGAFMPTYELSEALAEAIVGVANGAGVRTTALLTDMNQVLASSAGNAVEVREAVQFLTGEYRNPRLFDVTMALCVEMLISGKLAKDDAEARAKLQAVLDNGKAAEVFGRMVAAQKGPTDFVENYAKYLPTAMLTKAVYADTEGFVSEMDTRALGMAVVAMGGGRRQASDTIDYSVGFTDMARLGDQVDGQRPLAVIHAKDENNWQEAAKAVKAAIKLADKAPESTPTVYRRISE

For COc1ccc(C=NNC(=O)c2ccc(-c3nnc(-c4cc5ccccc5cn4)o3)cc2)c(OC)c1OC [analogue 19, 4-(5-(isoquinolin-3-yl)-1,3,4-oxadiazol-2-yl)-N’-(2,3,4-trimethoxybenzylidene)benzohydrazide], the “inhibitory potential compared with the standard 7-Deazaxanthine (in words)” value was “good inhibitory activity”.
For COc1cc(C=NNC(=O)c2ccc(-c3nnc(-c4cc5ccccc5cn4)o3)cc2)cc(OC)c1OC [analogue 15, 4-(5-(isoquinolin-3-yl)-1,3,4-oxadiazol-2-yl)-N’-(3,4,5-trimethoxybenzylidene)benzohydrazide], the “inhibitory potential compared with the standard 7-Deazaxanthine (in words)” value was “good inhibitory activity”.
O=C(NN=Cc1c2ccccc2cc2ccccc12)c1ccc(-c2nnc(-c3cc4ccccc4cn3)o2)cc1 [analogue 2, N’-(anthracen-9-ylmethylene)-4-(5-(isoquinolin-3-yl)-1,3,4-oxadiazol-2-yl)benzohydrazide] was tested, and the “inhibitory potential compared with the standard 7-Deazaxanthine (in words)” value was “good inhibitory activity”.

Same assay, conditions: read-out: IC50 value, thymidine phosphorylase inhibitory activity

Compared with COc1ccc(Br)cc1C=NNC(=O)c1ccc(-c2nnc(-c3cc4ccccc4cn3)o2)cc1 [analogue 7, N’-(5-bromo-2-methoxybenzylidene)-4-(5-(isoquinolin-3-yl)-1,3,4-oxadiazol-2-yl)benzohydrazide], COc1ccc(C=NNC(=O)c2ccc(-c3nnc(-c4cc5ccccc5cn4)o3)cc2)cc1O [analogue 12, N’-(3-hydroxy-4-methoxybenzylidene)-4-(5-(isoquinolin-3-yl)-1,3,4-oxadiazol-2-yl)benzohydrazide] is 8-fold lower in IC50: 36.7 ± 0.9 µM for the first, 4.6 ± 0.1 µM for the second. The second is the more potent here.

COc1ccc(C=NNC(=O)c2ccc(-c3nnc(-c4cc5ccccc5cn4)o3)cc2)c(OC)c1OC [analogue 19, 4-(5-(isoquinolin-3-yl)-1,3,4-oxadiazol-2-yl)-N’-(2,3,4-trimethoxybenzylidene)benzohydrazide] and COc1cc(C=NNC(=O)c2ccc(-c3nnc(-c4cc5ccccc5cn4)o3)cc2)cc(OC)c1OC [analogue 15, 4-(5-(isoquinolin-3-yl)-1,3,4-oxadiazol-2-yl)-N’-(3,4,5-trimethoxybenzylidene)benzohydrazide] are within 1.5-fold of each other in IC50: 54.6 ± 1.5 µM for the first, 47.3 ± 1.2 µM for the second.

Compared with Nc1cccc(C=NNC(=O)c2ccc(-c3nnc(-c4cc5ccccc5cn4)o3)cc2)c1 [analogue 10, N’-(3-aminobenzylidene)-4-(5-(isoquinolin-3-yl)-1,3,4-oxadiazol-2-yl)benzohydrazide], N#Cc1cccc(C=NNC(=O)c2ccc(-c3nnc(-c4cc5ccccc5cn4)o3)cc2)c1 [analogue 14, N’-(3-cyanobenzylidene)-4-(5-(isoquinolin-3-yl)-1,3,4-oxadiazol-2-yl)benzohydrazide] is 25-fold higher in IC50: 1.1 ± 0.1 µM for the first, 27.4 ± 0.7 µM for the second. The first is the more potent here.

Compared with O=C(NN=Cc1ccc(COc2ccccc2)cc1)c1ccc(-c2nnc(-c3cc4ccccc4cn3)o2)cc1 [analogue 4, 4-(5-(isoquinolin-3-yl)-1,3,4-oxadiazol-2-yl)-N’-(4-(phenoxymethyl)benzylidene)benzohydrazide], O=C(NN=Cc1ccc(Cl)cc1)c1ccc(-c2nnc(-c3cc4ccccc4cn3)o2)cc1 [analogue 6, N’-(4-chlorobenzylidene)-4-(5-(isoquinolin-3-yl)-1,3,4-oxadiazol-2-yl)benzohydrazide] is 1.7-fold lower in IC50: 28.3 ± 0.5 µM for the first, 16.4 ± 0.5 µM for the second. The second is the more potent here.

CN(C)c1ccc(C=NNC(=O)c2ccc(-c3nnc(-c4cc5ccccc5cn4)o3)cc2)cc1 [analogue 8, N’-(4-(dimethylamino)benzylidene)-4-(5-(isoquinolin-3-yl)-1,3,4-oxadiazol-2-yl)benzohydrazide] and N#Cc1ccc(C=NNC(=O)c2ccc(-c3nnc(-c4cc5ccccc5cn4)o3)cc2)cc1 [analogue 17, N’-(4-cyanobenzylidene)-4-(5-(isoquinolin-3-yl)-1,3,4-oxadiazol-2-yl)benzohydrazide] are within 1.5-fold of each other in IC50: 18.8 ± 0.5 µM for the first, 22.1 ± 0.5 µM for the second.

COc1cc(C=NNC(=O)c2ccc(-c3nnc(-c4cc5ccccc5cn4)o3)cc2)cc(OC)c1O [analogue 11, N’-(4-hydroxy-3,5-dimethoxybenzylidene)-4-(5-(isoquinolin-3-yl)-1,3,4-oxadiazol-2-yl)benzohydrazide] and COc1cc(C=NNC(=O)c2ccc(-c3nnc(-c4cc5ccccc5cn4)o3)cc2)ccc1O [analogue 13, N’-(4-hydroxy-3-methoxybenzylidene)-4-(5-(isoquinolin-3-yl)-1,3,4-oxadiazol-2-yl)benzohydrazide] are within 1.5-fold of each other in IC50: 5.3 ± 0.2 µM for the first, 6 ± 0.2 µM for the second.

First: N#Cc1ccccc1C=NNC(=O)c1ccc(-c2nnc(-c3cc4ccccc4cn3)o2)cc1 [analogue 16, N’-(2-cyanobenzylidene)-4-(5-(isoquinolin-3-yl)-1,3,4-oxadiazol-2-yl)benzohydrazide]
Second: O=C(NN=Cc1ccccc1[N+](=O)[O-])c1ccc(-c2nnc(-c3cc4ccccc4cn3)o2)cc1 [analogue 1, 4-(5-(isoquinolin-3-yl)-1,3,4-oxadiazol-2-yl)-N’-(2-nitrobenzylidene)benzohydrazide]
The IC50 of the first is 2.9-fold higher: 18.5 ± 0.5 µM for the first, 6.3 ± 0.2 µM for the second. The second is the more potent here.

Compared with O=C(NN=Cc1ccc(O)c(O)c1O)c1ccc(-c2nnc(-c3cc4ccccc4cn3)o2)cc1 [analogue 20, 4-(5-(isoquinolin-3-yl)-1,3,4-oxadiazol-2-yl)-N’-(2,3,4-trihydroxybenzylidene)benzohydrazide], COc1cccc(C=NNC(=O)c2ccc(-c3nnc(-c4cc5ccccc5cn4)o3)cc2)c1O [analogue 18, N’-(2-hydroxy-3-methoxybenzylidene)-4-(5-(isoquinolin-3-yl)-1,3,4-oxadiazol-2-yl)benzohydrazide] is 6.6-fold higher in IC50: 1.1 ± 0.05 µM for the first, 7.3 ± 0.2 µM for the second.

O=C(NN=Cc1ccc(Cl)cc1Cl)c1ccc(-c2nnc(-c3cc4ccccc4cn3)o2)cc1 [analogue 3, N’-(2,4-dichlorobenzylidene)-4-(5-(isoquinolin-3-yl)-1,3,4-oxadiazol-2-yl)benzohydrazide] and O=C(NN=Cc1cc(Cl)cc(Cl)c1O)c1ccc(-c2nnc(-c3cc4ccccc4cn3)o2)cc1 [analogue 9, N’-(3,5-dichloro-2-hydroxybenzylidene)-4-(5-(isoquinolin-3-yl)-1,3,4-oxadiazol-2-yl)benzohydrazide] are within 1.5-fold of each other in IC50: 3.3 ± 0.1 µM for the first, 2.4 ± 0.1 µM for the second.

First: O=C(NN=Cc1c2ccccc2cc2ccccc12)c1ccc(-c2nnc(-c3cc4ccccc4cn3)o2)cc1 [analogue 2, N’-(anthracen-9-ylmethylene)-4-(5-(isoquinolin-3-yl)-1,3,4-oxadiazol-2-yl)benzohydrazide]
Second: CC(=NNC(=O)c1ccc(-c2nnc(-c3cc4ccccc4cn3)o2)cc1)c1ccc([N+](=O)[O-])cc1 [analogue 5, 4-(5-(isoquinolin-3-yl)-1,3,4-oxadiazol-2-yl)-N’-(1-(4-nitrophenyl)ethylidene)benzohydrazide]
The IC50 of the first is 2.7-fold higher: 39.4 ± 0.9 µM for the first, 14.6 ± 0.4 µM for the second. The second is the more potent here.
